We go through 46 molecules from patent US20200339537A1, “NOVEL COMPOUND AS INHIBITOR AGAINST BINDING OF PF34 PROTEIN TO NEDD4-1 PROTEIN AND USE THEREOF” (ENHANCEDBIO INC., priority 2017, published 2020).

Experiment [1] has as its target T1, binding between p34 protein and NEDD4-1 protein (Homo sapiens, UniProt P46934+Q9UHV2).
T1 construct: FLAG or 6xHis (known only from the detection antibodies)
T1 sequence (P46934 1-1319): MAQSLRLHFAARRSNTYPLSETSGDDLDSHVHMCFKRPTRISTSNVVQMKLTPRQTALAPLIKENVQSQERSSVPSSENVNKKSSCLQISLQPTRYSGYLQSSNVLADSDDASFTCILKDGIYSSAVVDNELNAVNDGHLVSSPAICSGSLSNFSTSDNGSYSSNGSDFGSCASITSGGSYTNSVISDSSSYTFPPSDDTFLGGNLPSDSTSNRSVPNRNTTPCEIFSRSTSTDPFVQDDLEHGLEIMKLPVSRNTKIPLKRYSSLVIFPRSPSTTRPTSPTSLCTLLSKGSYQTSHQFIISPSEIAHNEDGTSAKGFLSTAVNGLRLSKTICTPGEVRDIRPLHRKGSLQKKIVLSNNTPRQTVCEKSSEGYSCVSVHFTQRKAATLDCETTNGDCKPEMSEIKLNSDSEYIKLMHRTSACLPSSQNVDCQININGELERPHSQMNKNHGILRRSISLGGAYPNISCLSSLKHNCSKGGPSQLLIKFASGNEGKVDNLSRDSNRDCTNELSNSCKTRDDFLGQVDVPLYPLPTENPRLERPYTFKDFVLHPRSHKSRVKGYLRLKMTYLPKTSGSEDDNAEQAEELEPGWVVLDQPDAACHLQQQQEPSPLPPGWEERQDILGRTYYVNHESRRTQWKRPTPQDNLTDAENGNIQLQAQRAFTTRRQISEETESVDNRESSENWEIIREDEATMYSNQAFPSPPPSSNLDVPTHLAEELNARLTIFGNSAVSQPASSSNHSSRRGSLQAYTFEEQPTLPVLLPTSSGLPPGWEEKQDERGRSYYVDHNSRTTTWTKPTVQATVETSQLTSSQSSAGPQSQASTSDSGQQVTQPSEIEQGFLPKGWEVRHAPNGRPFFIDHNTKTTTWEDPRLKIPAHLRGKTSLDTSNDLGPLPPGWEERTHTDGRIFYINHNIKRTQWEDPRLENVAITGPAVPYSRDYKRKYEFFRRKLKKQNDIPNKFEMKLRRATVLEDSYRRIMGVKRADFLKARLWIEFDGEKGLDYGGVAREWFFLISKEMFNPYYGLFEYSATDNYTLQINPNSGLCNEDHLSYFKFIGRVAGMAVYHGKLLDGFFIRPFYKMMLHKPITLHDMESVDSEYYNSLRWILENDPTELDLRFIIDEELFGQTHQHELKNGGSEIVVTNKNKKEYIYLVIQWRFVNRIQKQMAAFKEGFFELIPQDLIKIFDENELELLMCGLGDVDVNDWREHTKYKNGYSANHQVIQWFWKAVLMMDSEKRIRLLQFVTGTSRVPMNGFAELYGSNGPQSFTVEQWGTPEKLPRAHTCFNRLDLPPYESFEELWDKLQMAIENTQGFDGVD
T1 sequence (Q9UHV2 1-236): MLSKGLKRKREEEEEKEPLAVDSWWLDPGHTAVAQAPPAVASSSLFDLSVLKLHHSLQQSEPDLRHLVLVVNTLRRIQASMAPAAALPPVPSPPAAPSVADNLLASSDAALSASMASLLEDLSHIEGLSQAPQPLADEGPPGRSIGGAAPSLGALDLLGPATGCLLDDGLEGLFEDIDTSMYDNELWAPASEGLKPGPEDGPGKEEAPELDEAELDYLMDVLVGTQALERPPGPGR
Nature of the experiment: Inhibitory activity on binding between p34 and NEDD4-1, FRET (HTRF) assay. As to conditions: 1×PBS pH 7.4, 0.1% BSA, 2% DMSO, 384-well; for inhibition at 10 µM: pH 7.4, compound 10 μM; for FRET result (Inhibition % @10 μM): compound 10 μM. The procedure: Inhibitory activity of the compound on binding between p34 and NEDD4-1 was evaluated using p34 protein and NEDD4-1 protein based on the HTRF technology developed by Cisbio. In this assay, a fluorescence resonance energy transfer (FRET) signal was measured in the presence of terbium-labeled anti-FLAG antibody and d2-labeled anti-6XHis antibody. Experiments were performed in 384-well plates under a condition of 1×PBS pH 7.4, 0.1% BSA, and 2% DMSO. A background signal was measured in the absence of the p34-NEDD4-1 proteins, and a non-inhibiting signal was measured with addition of only a solvent (2% DMSO). […] Subsequently, inhibitory activity of the compound on p34-NEDD4-1 was calculated in %.
(TR-FRET usually uses a lanthanide donor and a delayed reading to cut background.)

Experiment [2] relates to PTEN (lipid phosphatase activity) in human colon cancer cell line SW620. Nature of the experiment: cells. The settings on record: compound 5 μM, PTEN immunoprecipitation, diC8-PIP3 substrate, Biomol Green; for fold induction at 5 µM: Homo sapiens, SW-620, 48 h, read-out: PTEN activity (relative fold @5 μM). It counts as cell-based.

In general, inhibition refers to how much of the control response was suppressed. The molecule `O=C(NCc1nccs1)C1CCN(Cc2c[nH]c3ccc(Cl)cc23)CC1` [Example 11] had an inhibition at 10 µM in experiment [1] of 39.1%. As for `CN(Cc1nc2ccccc2n1C)C(=O)N1CCN(Cc2c[nH]c3ccc(Cl)cc23)CC1` [Example 69], the fold induction at 5 µM in experiment [2] stood at 1.6. Regarding `O=C(NCc1nccs1)C1CCN(Cc2ccc3[nH]ccc3c2)CC1` [Example 19], in experiment [1], the “FRET result (Inhibition % @10 μM)” value amounted to 32.1%. In experiment [2], the fold induction at 5 µM was 2.5.

For `O=C(NCc1nc2cc(F)c(F)cc2[nH]1)C1CCN(Cc2c[nH]c3ccccc23)CC1` [Example 53], the fold induction at 5 µM in experiment [2] stood at 1.8. As to `O=C(NCc1cnccn1)C1CCN(Cc2c[nH]c3ccc(Cl)cc23)CC1` [Example 10], 10 µM produced 39% inhibition in experiment [1].

The molecule `O=C(NCc1nc2ccccc2[nH]1)C1CCN(Cc2c[nH]c3ccc(F)cc23)CC1` [Example 47] came in with an inhibition at 10 µM in experiment [1] of 30.5%.

Regarding `O=C(NCc1nc2ccccc2[nH]1)C1CCN(Cc2c[nH]c3cc(F)c(F)cc23)CC1` [Example 60], the inhibition at 10 µM in experiment [1] is 38.4%. In experiment [1], `Cc1[nH]c2ccc(CN3CCN(C(=O)NCc4cncs4)CC3)cc2c1C` [Example 89] registered an inhibition at 10 µM of 31.5%. Moreover, in experiment [2], the fold induction at 5 µM is 2.

Turning to `O=C(NCc1nc2ccccc2o1)C1CCN(Cc2ccc3[nH]ccc3c2)CC1` [Example 18], the inhibition at 10 µM in experiment [1] is 30%. The fold induction at 5 µM in experiment [2] was determined as 2. Consider `Cn1cc(CN2CCC(C(=O)NCc3nc4ccccc4[nH]3)CC2)c2cc(F)ccc21` [Example 51], for which, in experiment [1], at 10 µM the inhibition was 56.2%.

For the molecule `Cn1c(CNC(=O)C2CCN(Cc3c[nH]c4ccccc34)CC2)nc2ccccc21` [Example 46], in experiment [1], the inhibition at 10 µM is 42.9%. The same measure, in the same setting: the figure for `O=C(NCc1ncc[nH]1)C1CCN(Cc2ccc3[nH]ccc3c2)CC1` [Example 15] is 60.4%. Consider `O=C(NCc1nccs1)N1CCN(Cc2ccc3[nH]ccc3c2)CC1` [Example 80], for which at 10 µM the inhibition in experiment [1] was 49.7%. The fold induction at 5 µM in experiment [2] came to 2.1. In experiment [1], `O=C(NCc1nccs1)C1CCN(C(=O)c2ccc3[nH]ccc3c2)CC1` [Example 28] displayed an inhibition at 10 µM of 34.5%.

On to `Cn1c(CNC(=O)C2CCN(Cc3ccc4[nH]ccc4c3)CC2)nc2ccccc21` [Example 27], for which the fold induction at 5 µM in experiment [2] was found to be 1.8.

In experiment [1], `O=C(NCc1nc2ccccc2[nH]1)C1CCN(Cc2c[nH]c3ccc(C(F)(F)F)cc23)CC1` [Example 41] showed an inhibition at 10 µM of 42.8%. The same measure, in the same setting: under `O=C(NCc1cnccn1)C1CCN(Cc2c[nH]c3ccc(C(F)(F)F)cc23)CC1` [Example 38] stands 36.6%. For the molecule `O=C(NCc1cncs1)N1CCN(Cc2n[nH]c3ccccc23)CC1` [Example 83], the inhibition at 10 µM in experiment [1] was 41.3%. Moreover, the fold induction at 5 µM in experiment [2] worked out at 1.9. In experiment [1], `O=C(NCc1nc2cc(F)c(F)cc2[nH]1)C1CCN(Cc2ccc3[nH]ccc3c2)CC1` [Example 16] displayed an inhibition at 10 µM of 47.2%. The fold induction at 5 µM in experiment [2] came to 1.5.

As for `CC(NC(=O)C1CCN(Cc2c[nH]c3ccc(Cl)cc23)CC1)c1nc2ccccc2[nH]1` (centres unmarked) [Example 5], the fold induction at 5 µM in experiment [2] was 1.5. On the same count and under the same terms, under `Cn1cc(CN2CCC(C(=O)NCc3nc4ccccc4[nH]3)CC2)c2ccccc21` [Example 59] stands 2. On to `O=C(NCc1nccs1)N1CCN(Cc2ccc3cc[nH]c3c2)CC1` [Example 82], for which, in experiment [1], the inhibition at 10 µM is 47.2%. Besides, in experiment [2], the fold induction at 5 µM came to 1.7. For the molecule `Cn1c(CNC(=O)N2CCN(Cc3c[nH]c4ccc(Cl)cc34)CC2)nc2ccccc21` [Example 63], 10 µM produced 52.3% inhibition in experiment [1]. The same measure, in the same setting: the figure for `CN(Cc1nc2ccccc2[nH]1)C(=O)C1CCN(Cc2c[nH]c3ccccc23)CC1` [Example 52] is 32.4%. Turning to `O=C(NCc1nc2ccccc2[nH]1)C1CCN(Cc2c[nH]c3ccc(C(F)(F)F)cc23)CC1` [Example 8], the “FRET result (Inhibition % @10 μM)” value in experiment [1] was 49.4%. `CC(NC(=O)N1CCN(Cc2c[nH]c3ccc(Cl)cc23)CC1)c1nc2ccccc2[nH]1` (centres unmarked) [Example 65] returned an inhibition at 10 µM in experiment [1] of 53.1%.

The molecule `O=C(NCc1ncc[nH]1)C1CCN(Cc2c[nH]c3ccc(Cl)cc23)CC1` [Example 9] gave an inhibition at 10 µM in experiment [1] of 58.4%.

Turning to `O=C(NCc1nc2ccccc2[nH]1)N1CCN(Cc2c[nH]c3ccc(Cl)cc23)CC1` [Example 75], the inhibition at 10 µM in experiment [1] came out at 52.4%.

For the molecule `CN(Cc1nc2ccccc2n1C)C(=O)N1CCN(Cc2c[nH]c3ccc(Cl)cc23)CC1` [Example 70], the “PTEN activity (relative fold @5 μM)” value in experiment [2] (48 hours) turned out to be 2.1 fold. In experiment [1], `O=C(NCc1cnccn1)C1CCN(Cc2ccc3[nH]ccc3c2)CC1` [Example 26] showed an inhibition at 10 µM of 42%. On the same count and under the same terms, under `O=C(NCc1nc2ccccc2[nH]1)C1CCN(Cc2ccc3[nH]ccc3c2)CC1` [Example 23] stands 38.2%. On to `O=C(NCc1nc2cc(F)c(F)cc2[nH]1)C1CCN(Cc2c[nH]c3ccc(F)cc23)CC1` [Example 48], for which, in experiment [2], the fold induction at 5 µM turned out to be 1.6. For the molecule `O=C(NCc1nccs1)N1CCN(Cc2c[nH]c3ccc(Cl)cc23)CC1` [Example 76], in experiment [2], the fold induction at 5 µM is 1.7. On the same count and under the same terms, under `CC(NC(=O)C1CCN(Cc2c[nH]c3ccccc23)CC1)c1nc2ccccc2[nH]1` (centres unmarked) [Example 49] stands 1.9. Molecule `O=C(NCc1nccs1)C1CCN(Cc2ccc3[nH]ccc3c2)CC1` [Example 12] showed an inhibition at 10 µM in experiment [1] of 39.2%.

For `Cc1ccc2nc(C(C)NC(=O)C3CCN(Cc4c[nH]c5ccc(Cl)cc45)CC3)[nH]c2c1` (centres unmarked) [Example 2], at 10 µM the inhibition in experiment [1] was 42.4%. On to `O=C(NCc1nc2ccccc2[nH]1)C1CCN(Cc2c[nH]cn2)CC1` [Example 22], for which the inhibition at 10 µM in experiment [1] was 48.1%. Regarding `O=C(NCc1cncs1)C1CN(Cc2c[nH]c3ccc(C(F)(F)F)cc23)C1` [Example 36], the fold induction at 5 µM in experiment [2] was found to be 1.7. `Cn1c(CNC(=O)C2CCN(Cc3c[nH]c4ccc(C(F)(F)F)cc34)CC2)nc2ccccc21` [Example 40]: the inhibition at 10 µM in experiment [1] was 42.8%. Same read-out and setting: the figure for `CCC(NC(=O)C1CCN(Cc2ccc3[nH]ccc3c2)CC1)c1nc2ccccc2[nH]1` (centres unmarked) [Example 24] is 53%; for `O=C(NC(Cc1ccccc1)c1nc2ccccc2[nH]1)C1CCN(Cc2ccc3[nH]ccc3c2)CC1` (centres unmarked) [Example 21] it is 56.6%. With `Cc1cc2nc(CNC(=O)C3CCN(Cc4c[nH]c5ccc(Cl)cc45)CC3)[nH]c2cc1C` [Example 3], in experiment [2], the fold induction at 5 µM amounted to 1.5. In experiment [1], `CCC(NC(=O)C1CCN(Cc2c[nH]c3ccc(Cl)cc23)CC1)c1nc2ccccc2[nH]1` (centres unmarked) [Example 7] gave an inhibition at 10 µM of 59%. Turning to `Cc1[nH]c2ccc(CN3CCN(C(=O)NCc4nccs4)CC3)cc2c1C` [Example 88], the fold induction at 5 µM in experiment [2] is 2.2. The same measure, in the same setting: the figure for `CC(NC(=O)C1CCN(Cc2c[nH]c3ccc(F)cc23)CC1)c1nc2ccccc2[nH]1` (centres unmarked) [Example 50] is 2.6. `Cc1ccc2nc(C(C)NC(=O)C3CCN(Cc4c[nH]c5ccccc45)CC3)[nH]c2c1` (centres unmarked) [Example 56]: the inhibition at 10 µM in experiment [1] was 56.2%.
